Assay results from ChEMBL document CHEMBL5344411, “Phenotypic screening-based drug discovery of furan-2-carboxylic acid derivatives for the amelioration of type 2 diabetes mellitus (T2DM)” (Eur J Med Chem, 2023).
Calls of active or inactive are those of the source. No cut-off for these calls is given here.

Tests used:
Hepatocyte [1] = experiment: Inhibition of gluconeogenesis in Sprague-Dawley rat hepatocytes at 0.3 uM incubated for 1.5 hrs followed by sodium pyruvate and sodium lactate addition and measured after 4 hrs by colorimetric analysis relative to control; assay type: functional; settings: time 5.5 hrs
Mus musculus [2] = experiment: Inhibition of gluconeogenesis in CD-1 mouse assessed as decrease in blood glucose level at 50 mg/kg administered via gavage at 1 hr prior to pyruvate sodium challenge and measured for 2 hrs by pyruvate tolerance test; assay type: functional, organism-based; settings: time 3.0 hrs
Hepatocyte [3] = experiment: Inhibition of gluconeogenesis in Sprague-Dawley rat hepatocytes at 10 uM incubated for 1.5 hrs followed by sodium pyruvate and sodium lactate addition and measured after 4 hrs by colorimetric analysis relative to control; assay type: functional; settings: time 5.5 hrs
Hepatocyte [4] = experiment: Inhibition of gluconeogenesis in Sprague-Dawley rat hepatocytes at 3 uM incubated for 1.5 hrs followed by sodium pyruvate and sodium lactate addition and measured after 4 hrs by colorimetric analysis relative to control; assay type: functional; settings: time 5.5 hrs
Hepatocyte [5] = experiment: Inhibition of gluconeogenesis in Sprague-Dawley rat hepatocytes at 1 uM incubated for 1.5 hrs followed by sodium pyruvate and sodium lactate addition and measured after 4 hrs by colorimetric analysis relative to control; assay type: functional; settings: time 5.5 hrs
Mus musculus [6] = experiment: Inhibition of gluconeogenesis in CD-1 mouse assessed as decrease in blood glucose level at 50 mg/kg administered via gavage at 2 hrs prior to pyruvate sodium challenge and measured for 2 hrs by pyruvate tolerance test; assay type: functional, organism-based; settings: time 4.0 hrs

Structure (SMILES)	fold change (FC) (Hepatocyte [3])	also measured
COc1cc(Cl)ccc1OCc1ccc(C(=O)O)o1	0.33	fold change (FC) (Hepatocyte [1]): 1.02; inhibition (Mus musculus [2]): Active; fold change (FC) (Hepatocyte [4]): 0.51; fold change (FC) (Hepatocyte [5]): 0.78
CCCOc1cc(CCC)ccc1OCc1ccc(C(=O)O)o1	0.72	–
CNC(=O)Cc1ccc(OCc2ccc(C(=O)O)o2)c(OC)c1	1.08	–
C=CCc1ccc(OCc2ccc(C(=O)N3CCN(C)CC3)o2)c(OC)c1	0.98	–
C=CCc1ccc(OCc2ccc(C(=O)N3CCOCC3)o2)c(OC)c1	0.97	–
CNC(=O)/C=C/c1ccc(OCc2ccc(C(=O)O)o2)c(OC)c1	0.85	–
C=CCc1ccc(OCc2ccc(C(=O)NCCO)o2)c(OC)c1	0.82	–
CCCc1ccc(OCc2ccc(C(=O)O)o2)c(OCCOC)c1	0.72	–
CNC(=O)CCc1ccc(OCc2ccc(C(=O)O)o2)c(OC)c1	0.98	–
C=CCc1ccc(OCc2ccc(C(=O)Nc3cccc(C)c3)o2)c(OC)c1	0.83	–
C=CCc1ccc(OCc2cccc(C(=O)O)n2)c(OC)c1	1.11	–
CCCc1ccc(OCc2ccc(C(=O)O)o2)c(OCC2CC2)c1	1.16	–
C=CCc1ccc(OC)c(OCc2ccc(C(=O)O)o2)c1	1	–
C=CCc1ccc(OCc2ccc(C(=O)O)o2)cc1	0.6	–
CCC(=O)c1ccc(OCc2ccc(C(=O)O)o2)c(OC)c1	0.79	–
CCCc1ccc(OCc2ccc(C(=O)O)o2)c(OC)c1	0.65	fold change (FC) (Hepatocyte [1]): 1.19; inhibition (Mus musculus [6]): Active; fold change (FC) (Hepatocyte [4]): 0.75; fold change (FC) (Hepatocyte [5]): 1.05
C=CCc1ccc(OCc2ccc(C(=O)O)s2)c(OC)c1	1.05	–
C=CCc1cccc(OC)c1OCc1ccc(C(=O)O)o1	0.78	–
